In brackets after ≈: the same amount, converted by molar mass. Like-named read-outs stand apart in the source and are kept apart here.
Experiments:
Solubility assay = format: physicochemical; settings: DMSO stock added to PBS buffer solution pH 7.2; precipitation point by light scattering at 600 nm
Procedure: Solubility assay. The solubility assay was performed according to Lipinski, C. A. et al Advances Drug Delivery Reviews 2001, 46, 3-26. Typically, a compound of the invention was dissolved in DMSO at a concentration of 10 μg/μl. The so obtained solution was added in […] at 1 min intervals to 2.5 ml PBS buffer solution pH 7.2. These additions correspond to solubility increments of 5 μg/ml to a top value of 65 μg/ml. A total of 14 additions were made and each time increased UV absorbance from light scattering was measured at 600 nm. The precipitation point was calculated from a bilinear curve fit to the Absorbance (y axis) versus μl of DMSO (x axis) plot.
The solubility of the polyene macrolides of the invention in water was tested following the above described protocol. Clearly, all conjugates were more soluble in water then AmB.

human erythrocytes = assay: Hemolytic assay (EH50); format: cell-based; settings: concentration that led to 50% hemolysis of human erythrocytes; one hour at 37° C.
Procedure: Hemolytic Assay. The hemotoxicity of the polyene macrolide derivatives of the invention was determined by measuring the toxicity towards human erythrocytes (EH50 value) using an established assay (Kinsky, S. C. et al., Biochem. Biophys. Res. Comm. 1962, 9, 503). Human blood, anticoagulated with citrate or EDTA, was centrifuged (2000×g) at 4° C. for 10 minutes. The pellets were washed three times with PBS buffer (pH 7.2 with 2 g/L glucose) and then diluted to a concentration of 4% (4×10^8 cells/mL). All experiments were done in triplo and the total volume for the hemolysis tubes was 1.4 ml. The solutions were prepared by adding 1% (14 μL) of DMSO solution of the tested compound with […] of PBS buffer and completed with 750 μL of 4% erythrocytes. After one hour incubation at 37° C., the samples were centrifuged (1500×g) at 4° C. for 5 min and the absorbance of the supernatant was measured at 560 nm. The concentration that led to 50% hemolysis (EH50) was intrapolated graphically. The value for the 100% hemolysis was obtained by the treatment with 100 μM of AmB.
The toxicity of AmB (1a) and the polyene macrolides 3, 9 and 10 towards human erythrocytes was examined using the above described hemolysis assay (Table 3).

DSY-294 C. albican CI = assay: MIC determination in Candida strain DSY-294; format: cell-based, Candida albicans
Procedure: (§1) In Vitro Antifungal Activity. MIC values for various strains were determined in accordance with the standard protocol from the National Committee of Clinical Laboratory Standards but using YEPD liquid medium instead of RPMI-1640 medium (National Committee of Clinical Laboratory Standards (Reference Method for Broth Dilution Antifungal Susceptibility Testing of Yeast, M27-A2, Approved Standard-Second Edition, Volume 22, Number 15, 1995). AmB was used as a reference. The strains were cultivated overnight in 5 mL YEPD liquid medium at 30 to 37° C. (30° C. for the strain BY4741; 37° C. for the strain DSY1764) with constant shaking. The saturated cultures were diluted to an ODB600 of 0.1 (3×10P^7 cells/mL). Using 24 wells plate, each well was prepared by adding 1% (12 μL) of DMSO solution of the tested polyene macrolide with 1% (12 μL) yeast cells solution and completed with YEPD (1.176 mL). The plates were sealed with Parafilm and then incubated for 18 to 36 hours at 30 to 37° C. (18 hours at 30° C. for the strain BY4741; 36 hours at 37° C. for the strain DSY1764). The optical density was read at 600 nm using 1.5 mL cuvettes. The MIC value was defined as the drug concentration needed to inhibit growth, less than 5% compared to a drug-free culture.
(§2) MIC values of the polyene macrolides 3, 9 and 10 (Diamine-AmB and its ester and diamide derivative, respectively) in various Candida strains including an AmB-resistant strain C. albicans (DSY1764, with the genotype erg3AΔ::hisG/erg3BΔ::hisG erg11Δ::hisG/erg11Δ::hisG-URA3-hisG) were determined.

[1] = tested on: DSY-1751 C. albican mutant erg3; assay: MIC determination in Candida strain DSY-1751; format: cell-based, Candida albicans
Procedure: as §1, §2

DSY-296 C. albican CI = assay: MIC determination in Candida strain DSY-296; format: cell-based, Candida albicans
Procedure: as §1, §2

[2] = tested on: DSY-654 C. albican mutant cdr1/2; assay: MIC determination in Candida strain DSY-654; format: cell-based, Candida albicans; settings: DSY-654 C. albican mutant cdr1/2
Procedure: as §1, §2

DSY-562 C. glabrata CI = assay: MIC determination in Candida strain DSY-562; format: cell-based
Procedure: as §1, §2

[3] = tested on: Saccharomyces cerevisiae wild type BY4741; assay: MIC determination in Saccharomyces cerevisiae wild type BY4741; format: cell-based; settings: read-out: MIC
Procedure: as §1
MIC values of various polyene macrolides of the invention in Saccharomyces cerevisiae wild type BY4741, a derivative of S288C, (with AmB as a reference) were determined as described hereinabove.
Based on the remarkable performance observed with the Diamine-AmB conjugate similar modifications of the aminosugar moiety were made on other polyene macrolides, such as for example Nystatin (1b) and Pimaricin (1c). The antifungal activity of these nystatin and pimaricin conjugates bearing two aminopropyl side chains was measured using Saccharomyces cerevisiae wild type BY4741.

[4] = tested on: DSY-1764 C. albican mutant erg3/11 (AmB-resistant strain); assay: MIC determination in AmB-resistant Candida strain DSY-1764; format: cell-based, Candida albicans
Procedure: as §1, §2

CAF2-1 C. albican wt = assay: MIC determination in Candida strain CAF2-1; format: cell-based, Candida albicans
Procedure: as §1, §2

DSY-565 C. glabrata CI = assay: MIC determination in Candida strain DSY-565; format: cell-based
Procedure: as §1, §2

[5] = Saccharomyces cerevisiae wild type BY4741, YEPD liquid medium, 18 hours at 30° C.

C[C@@H]1[C@H](O)[C@@H](C)/C=C/C=C/C=C/C=C/C=C/C=C/C=C/[C@H](O[C@@H]2O[C@H](C)[C@@H](O)[C@H](N)[C@@H]2O)C[C@@H]2O[C@](O)(C[C@@H](O)C[C@@H](O)[C@H](O)CC[C@@H](O)C[C@@H](O)CC(=O)O[C@H]1C)C[C@H](O)[C@H]2C(=O)O [AmB, Amphotericin B, reference compound]
Solubility in water (Solubility assay): 10 µg/mL (≈ 10.8 µM) | EH50 (human erythrocytes): 4.0 µM | MIC (DSY-294 C. albican CI): 0.40 µM (≈ 0.37 µg/mL) | MIC ([1]; DSY-1751 C. albican mutant erg3): 0.30 µM (≈ 0.277 µg/mL) | MIC (DSY-296 C. albican CI; DSY-296 C. albican CI): 0.40 µM (≈ 0.37 µg/mL) | MIC [2]: 0.50 µM (≈ 0.462 µg/mL) | MIC (DSY-562 C. glabrata CI): 0.50 µM (≈ 0.462 µg/mL) | MIC [3, 5]: 0.3 µM (≈ 0.277 µg/mL) | MIC ([3]; Table 3, strain not given, values as in Table 1 (S. cerevisiae BY4741)): 0.30 µM (≈ 0.277 µg/mL) | MIC ([4]; DSY-1764 C. albican mutant erg3/11, AmB-resistant, 36 hours at 37° C.): 50 µM (≈ 46.2 µg/mL) | MIC (CAF2-1 C. albican wt): 0.30 µM (≈ 0.277 µg/mL) | MIC (DSY-565 C. glabrata CI; DSY-565 C. glabrata CI): 0.50 µM (≈ 0.462 µg/mL)

C[C@@H]1[C@H](O)[C@@H](C)/C=C/C=C/C=C/C=C/C=C/C=C/C=C/[C@H](O[C@@H]2O[C@H](C)[C@@H](O)[C@H](N(CCCN)CCCN)[C@@H]2O)CC2O[C@](O)(C[C@@H](O)C[C@@H](O)[C@H](O)CC[C@@H](O)C[C@@H](O)CC(=O)O[C@H]1C)C[C@H](O)[C@H]2C(=O)NCCCN(C)C [compound 11, 16-(N′-(3-Dimethylaminopropyl)carboxamide)-N,N-di-(3-aminopropyl)-AmB]
MIC ([1]; Candida albicans): 1 µM (≈ 1.12 µg/mL) | MIC (DSY-296 C. albican CI; Candida albicans): 0.3 µM (≈ 0.337 µg/mL) | MIC (DSY-562 C. glabrata CI; Nakaseomyces glabratus): 0.3 µM (≈ 0.337 µg/mL) | MIC [3, 5]: 0.4 µM (≈ 0.449 µg/mL) | MIC ([4]; Candida albicans, 36 h): 1 µM (≈ 1.12 µg/mL) | MIC (CAF2-1 C. albican wt; Candida albicans): 0.5 µM (≈ 0.561 µg/mL) | MIC (DSY-565 C. glabrata CI; Nakaseomyces glabratus): 0.3 µM (≈ 0.337 µg/mL)

Source: patent US20090186838A1, “Amphotericin Derivatives” (Eidgenössische Technische Hochschule Zürich, priority 2006, published 2009)
